In series [1] the test system is HG-3 cells. Kind of series: alamarBlue cell viability assay. To be noted: for IC50: read-out: HG-3 IC50; for IC50 / viability at 1 µM / viability at 10 µM: HG-3, 24 h; for viability at 1 µM / viability at 10 µM: Homo sapiens; for viability at 1 µM: read-out: cell viability, HG-3, 1 µM, 24 h, vehicle = 100%; for viability at 10 µM: read-out: cell viability, HG-3, 10 µM, 24 h, vehicle = 100%. (In general: Alamar Blue is a resazurin reagent that responds to reducing activity.)

The subject of series [2] is PGA-1 cells. The conditions noted are these: 10 µM.
In another series the test system is K-562. Kind of series: NCI-60 five-dose assay. It counts as cell-based, human. The conditions noted are these: K-562.
For the next series, the system named is RPMI-8226. Description: NCI-60 five-dose assay. The class given is cell-based, human. The conditions noted are these: RPMI-8226.
The subject of the next series is SR. Description: NCI-60 five-dose assay. The class given is cell-based, human.
A further series deals with MOLT-4. Kind of series: NCI-60 five-dose assay. The conditions noted are these: MOLT-4. The class given is cell-based, human.
The subject of series [3] is HG-3 and PGA-1 cell lines. Kind of series: alamarBlue cell viability assay, mean of both CLL cell lines. The class given is cell-based, human. To be noted: mean of HG-3 and PGA-1.
In series [4] the test system is HG-3 cells. The conditions noted are these: 10 µM.
A further series has as its system CCRF-CEM. Kind of series: NCI-60 five-dose assay. It counts as cell-based, human.
The test system of a further series is leukemia cell panel. Description: NCI-60 five-dose assay, leukemia cell panel mean. The class given is cell-based, human. To be noted: mean across the six leukemia cell lines.
The next series relates to HL-60(TB). Kind of series: NCI-60 five-dose assay. The class given is cell-based, human. The conditions noted are these: HL-60(TB).
Series [5] deals with PGA-1 cells. Kind of series: alamarBlue cell viability assay. To be noted: for IC50: read-out: PGA-1 IC50, PGA-1, 24 h; for viability at 10 µM: Homo sapiens, 24 h, read-out: cell viability.
Series [6] concerns NCI 60 cancer cell line panel. Kind of series: NCI-60 five-dose assay, full-panel means. The class given is cell-based. The conditions noted are these: for Mean TGI (MID TGI, total growth inhibition) / GI50: mean over NCI 60 cell line panel; for GI50: read-out: Mean GI50 (MID GI50, full-panel mean-graph mid-point). Here is the method:
A number of our most promising compounds identified through preliminary cell viability testing (23c, 23d, 23f, 23h, 23l, 23m, 23n, 23o, 24f, 24l, 25n and 26n) were selected for NCI drug screening in the 60-cell-line panel. The panel includes nine subcategories based on cancer tissue types, which include leukemia, ovarian, central nervous system, breast, lung, prostate, skin, renal and colon cancer. The compounds were initially assessed in a one-dose assay at a fixed treatment concentration of 10 µM. The compounds selected for further investigation were progressed to a five-dose assay across the concentration ranges of 0.01, 0.1, 1, 10 and 100 µM [72]. The endpoints assessed in the screening protocol were GI50, TGI and LC50 [72].

Series [7] can be described thus: HPLC stability study in phosphate buffers. To be noted: 37 °C. It counts as physicochemical. Here is the method: A preliminary stability study was carried out on selected chalcones, maleic anhydride and maleimide adducts at acidic, neutral and basic conditions (pH 4, 7.4 and 9) using HPLC to determine suitability for further preclinical investigations. […] A possible degradation route for the maleimide 23n could be through the hydrolysis of the cyclic imide of the maleimide ring, leading to the resultant amic acid product.
All samples were analyzed using acetonitrile–water (80:20%, 70:30%, 60:40% isocratic) as the mobile phase over 10 min and a flow rate of 1 mL/min. Stock solutions were prepared by dissolving 5 mg of compounds in a mobile phase ([(acetonitrile (80%): water (20%)], 10 mL). Anhydride 22h was not detected at its retention time of 5.2 min at pH 9.0. The data presented represent the results of single experiments.
The HPLC stability studies for compounds 21a, 21i, 22h, 23a, 23g, 23n, 24a, 24h, 26a and 26n were performed using a Symmetry® column (C18, 5 µm, 4.6 × 150 mm), a Waters 2487 Dual Wavelength Absorbance detector, and an HPLC pump: Waters 1525 binary and Autosampler; Waters 717 plus (Waters Corporation, Milford, MA, USA), mobile phase [(acetonitrile (80%) and water (20%)] with a typical run time of 10 min and a flow rate of 1 mL/min with detection at 254 nm. The selected compounds 21a, 21i, 22h, 23a, 23g, 23n, 24a, 24h, 26a and 26n (5 mg) in the mobile phase (10 mL) provided the stock solution for the analysis. The phosphate buffers were prepared at pH values of 4, 7.4 and 9, as described in the British Pharmacopoeia monograph 2019. The stock solution (30 µL) was added to the appropriate buffer (1 mL) and retained at 37 °C. Samples were then analyzed over the following 24-h period at selected time intervals (t = 0 min, 5 min, 30 min, 60 min, 90 min, 120 min and 24 h).

Consider eleven compounds from article PMC11359702, “Synthesis and Biochemical Evaluation of Ethanoanthracenes and Related Compounds: Antiproliferative and Pro-Apoptotic Effects in Chronic Lymphocytic Leukemia (CLL)” (Pharmaceuticals, 2024).

As for `CCc1ccc(C(=O)/C=C/c2c3ccccc3cc3ccccc23)cc1` [Compound 21c, (E)-3-(anthracen-9-yl)-1-(4-ethylphenyl)prop-2-en-1-one], the melting point fell in the range of 128 to 129 °C.
In the case of `O=C(/C=C/C12c3ccccc3C(c3ccccc31)C1C(=O)N(c3ccccc3)C(=O)C12)c1ccc(Cl)cc1` (stereo not shown) [Compound 24l, (E)-9-(3-(4-Chlorophenyl)-3-oxoprop-1-en-1-yl)-13-phenyl-9,10-dihydro-9,10-[3,4] epipyrroloanthracene-12,14-dione], the figures for the IC50 (in the series on HG-3 cells [1]; in series [3]; in the series with PGA-1 cells [5]) were 3450 nM, 1880 nM and 310 nM, respectively. Also, the cell viability with PGA-1 cells [2] was determined as 17%; with HG-3 cells [4] it was 24%. For the same compound, the GI50 in the series on K-562 was 1550 nM; in the series on RPMI-8226, 1160 nM; in the series with SR, 1070 nM; with MOLT-4, 760 nM; with CCRF-CEM it was 570 nM; in the series on leukemia cell panel, 980 nM. Moreover, the GI50 in the series on HL-60(TB) was 800 nM; in [6], 1.7 µM. This compound also had a CC50 in series [6] of 43.7 µM. In addition, the “Mean TGI (MID TGI, total growth inhibition)” value in series [6] is 10.72 µM.
Regarding `O=C(/C=C/c1c2ccccc2cc2ccccc12)c1ccncc1` [Compound 21m, (E)-3-(anthracen-9-yl)-1-(pyridin-4-yl)prop-2-en-1-one], the melting point was 170 to 173 °C. Further, in the series on HG-3 cells [1], the viability at 1 µM was 50 to 61% and the viability at 10 µM was in the range of 37 to 54%. The viability at 10 µM in the series with PGA-1 cells [5] is 43%.
For `O=C(c1ccccc1)c1ccc(N2C(=O)C3C4c5ccccc5C(/C=C/C(=O)c5ccccn5)(c5ccccc54)C3C2=O)cc1` (stereo not shown) [Compound 26n, (E)-13-(4-Benzoylphenyl)-9-(3-oxo-3-(pyridin-2-yl)prop-1-en-1-yl)-9,10-dihydro-9,10-[3,4]epipyrroloanthracene-12,14-dione], the “decrease in cell viability compared to 26f” value is listed as 34% in the series on HG-3 cells [1] (HG-3, 1 µM); 82% in the series with HG-3 cells [1] (HG-3, 10 µM); 20% with PGA-1 cells [5] (PGA-1, 1 µM); 63% in the series with PGA-1 cells [5] (PGA-1, 10 µM). Moreover, the IC50 in the series with HG-3 cells [1] was 1850 nM; in series [3], 1120 nM; in the series with PGA-1 cells [5] it was 390 nM. The cell viability amounted to 18% in the series with PGA-1 cells [2] and 4% in the series with HG-3 cells [4]. The GI50 worked out at 1770 nM with K-562; 2490 nM in the series with RPMI-8226; 1370 nM in the series on SR; 2290 nM in the series with MOLT-4; 2590 nM with CCRF-CEM; 2070 nM with leukemia cell panel. In addition, the GI50 worked out at 1900 nM in the series with HL-60(TB) and 7.58 µM in [6]. In series [7] (pH 4 buffer), the “Half-life pH 4” value was determined as 8.5 h. Also, the “% remaining 24 h pH 4” value in [7] (pH 4 buffer, 24 h, HPLC) amounted to 10.97%. In addition, in series [7] (pH 7.4 buffer), the “Half-life pH 7.4” value stood at 16.5 h. For the same compound, in series [7] (pH 7.4 buffer, 24 h, HPLC), the “% remaining 24 h pH 7.4” value was 40.39%. Also, the “Half-life pH 9” value in [7] (pH 9 buffer) is reported as “over 24 h”. Also, the “% remaining 24 h pH 9” value in [7] (pH 9 buffer, 24 h, HPLC) is 51.20%. In addition, the CC50 in series [6] is 100 µM. In addition, the “Mean TGI (MID TGI, total growth inhibition)” value in series [6] stood at 100.0 µM.
In the case of `O=C(/C=C/c1c2ccccc2cc2ccccc12)c1cccs1` [Compound 21q, (E)-3-(anthracen-9-yl)-1-(thiophen-2-yl)prop-2-en-1-one], the melting point was 157 to 158 °C.
The compound `COC(=O)C1=C(C(=O)OC)C2(C=CC(=O)c3ccccc3)c3ccccc3C1c1ccccc12` [Compound 27, Dimethyl (E)-9-(3-oxo-3-phenylprop-1-en-1-yl)-9,10-dihydro-9,10-ethenoanthracene-11,12-dicarboxylate] displayed a melting point of more than 250 °C. The viability at 10 µM in the series with HG-3 cells [1] worked out at 50%. Further, the viability at 10 µM in the series with PGA-1 cells [5] was found to be 58%.
Compound `O=C(/C=C/c1c2ccccc2cc2ccccc12)c1ccc(I)cc1` [Compound 21g, (E)-3-(anthracen-9-yl)-1-(4-iodophenyl)prop-2-en-1-one] yielded a melting point of 167 to 173 °C.
Regarding `O=C(/C=C/c1c2ccccc2cc2ccccc12)c1ccc2ccccc2c1` [Compound 21p, (E)-3-(anthracen-9-yl)-1-(naphthalen-2-yl)prop-2-en-1-one], the melting point lay in the range of 160 to 164 °C. For the same compound, the viability at 10 µM in the series with PGA-1 cells [5] was 50%.
In turn, `O=C(/C=C/c1c2ccccc2cc2ccccc12)c1ccccc1` [Compound 21f, (E)-3-(anthracen-9-yl)-1-phenylprop-2-en-1-one] showed a melting point of 128 to 130 °C.
`COc1cc(C(=O)/C=C/c2c3ccccc3cc3ccccc23)cc(OC)c1OC` [Compound 21k, (E)-3-(Anthracen-9-yl)-1-(3,4,5-trimethoxyphenyl)prop-2-en-1-one] displayed a melting point of 160 to 164 °C. In the series on HG-3 cells [1], the viability at 1 µM lay within 50 to 61% and the viability at 10 µM fell in the range of 37 to 54%. Further, the viability at 10 µM in the series on PGA-1 cells [5] was determined as 43%.
As for `Cc1ccc(C(=O)/C=C/c2c3ccccc3cc3ccccc23)cc1` [Compound 21j, (E)-3-(anthracen-9-yl)-1-(p-tolyl)prop-2-en-1-one], the melting point was in the range of 98 to 103 °C.

Usually melting point stands for the temperature of the solid-liquid transition. The term IC50 denotes the point on the concentration scale where inhibition reaches its midpoint. As a reminder, the cell viability is a per cent measure of how many cells are alive, often set against a control. Broadly, the GI50 is the concentration giving 50% growth inhibition. Usually CC50 stands for the concentration at which the toxic effect on the cells reaches its halfway point. One may read the viability as a read-out of living cells in per cent, often relative to untreated cells.
